Structures can show the parent of a compound that is named as a salt. Where two headings read alike, the source gives them in different places.
What was measured:
[1] = target: T1, human arginase I (ARG I) (Homo sapiens, UniProt P05089); experiment: Inhibition of arginase I, spectrophotometric urea assay at 530 nm; type: biochemical
T1 sequence (P05089 1-322): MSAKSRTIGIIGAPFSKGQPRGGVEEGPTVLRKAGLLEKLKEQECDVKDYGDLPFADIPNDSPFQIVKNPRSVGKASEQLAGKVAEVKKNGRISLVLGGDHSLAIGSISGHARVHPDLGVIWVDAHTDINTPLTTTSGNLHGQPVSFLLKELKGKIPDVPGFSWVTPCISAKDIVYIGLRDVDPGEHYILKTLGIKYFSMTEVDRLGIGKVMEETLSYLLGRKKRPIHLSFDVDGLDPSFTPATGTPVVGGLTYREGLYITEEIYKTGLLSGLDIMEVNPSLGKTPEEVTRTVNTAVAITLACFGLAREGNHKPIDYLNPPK
Outline: (§1)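 IC50 was derived by regression of OD530 normalized to uninhibited-enzyme controls against log concentration. Urea from 60-min, 37 °C turnover of L-arginine with manganese sulfate was detected after acid o-phthaldialdehyde/primaquine quench and 10 min colour development. Arginase I and II came from 100 ng/ml stocks in pH 7.4 phosphate with ovalbumin.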

[2] = target: T2, arginase II (ARG II) (Homo sapiens, UniProt P78540); experiment: Inhibition of arginase II, spectrophotometric urea assay at 530 nm; type: biochemical
T2 sequence (P78540 23-354): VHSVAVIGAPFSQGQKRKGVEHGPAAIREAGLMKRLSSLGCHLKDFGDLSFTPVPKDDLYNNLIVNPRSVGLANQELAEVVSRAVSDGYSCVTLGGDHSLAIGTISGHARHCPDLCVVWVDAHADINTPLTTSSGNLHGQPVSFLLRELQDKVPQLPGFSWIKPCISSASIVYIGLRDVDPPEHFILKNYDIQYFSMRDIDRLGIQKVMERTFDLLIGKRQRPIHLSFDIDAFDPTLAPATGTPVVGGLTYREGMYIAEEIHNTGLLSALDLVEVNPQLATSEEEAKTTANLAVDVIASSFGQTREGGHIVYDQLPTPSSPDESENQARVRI
Outline: as §1

[3] = Formula I compounds, Table 2, read-out: Potency (ARG I)
[4] = Formula I compounds, Table 2, read-out: Potency (ARG II)

SMILES | IC50 [1, 3] | IC50 [2, 4] | IC50 [1] | IC50 [2]
COc1ccc(CN(C)CCC(N)(CCCCB(O)O)C(=O)O)cc1 (stereo not drawn) [compound 27, 2-amino-6-borono-2-(2-((4-methoxybenzyl)(methyl)amino)ethyl)hexanoic acid dihydrochloride] | 1000 to 2000 nM | 1000 to 2000 nM | – | –
NC(CCCCB(O)O)(CCN1CC=C(c2ccccc2)CC1)C(=O)O (stereo not drawn) [compound 28, 2-amino-6-borono-2-(2-(4-phenyl-5,6-dihydropyridin-1(2H)-yl)ethyl)hexanoic acid dihydrochloride] | 251 to 1000 nM | 1000 to 2000 nM | – | –
NC(CCCCB(O)O)(CCN1CCc2sccc2C1)C(=O)O (stereo not drawn) [compound 29, 2-amino-6-borono-2-(2-(6,7-dihydrothieno[3,2-c]pyridin-5(4H)-yl)ethyl)hexanoic acid dihydrochloride] | 251 to 1000 nM | 1000 to 2000 nM | – | –
NC(CCCCB(O)O)(CCN1CCc2[nH][nH]c(=O)c2C1)C(=O)O (stereo not drawn) [compound 30, 2-amino-6-borono-2-(2-(3-oxo-2,3,6,7-tetrahydro-1H-pyrazolo[4,3-c]pyridin-5(4H)-yl)ethyl)hexanoic acid dihydrochloride] | 251 to 1000 nM | 1000 to 2000 nM | – | –
COc1ccc(C2=CCN(CCC(N)(CCCCB(O)O)C(=O)O)CC2)cc1 (stereo not drawn) [compound 31, 2-amino-6-borono-2-(2-(4-(4-methoxyphenyl)-5,6-dihydropyridin-1(2H)-yl)ethyl)hexanoic acid dihydrochloride] | 251 to 1000 nM | 251 to 1000 nM | – | –
COC[C@@H]1CCCN1CCC(N)(CCCCB(O)O)C(=O)O (stereo partly drawn) [compound 33, 2-amino-6-borono-2-(2-((S)-2-(methoxymethyl)pyrrolidin-1-yl)ethyl)hexanoic acid dihydrochloride] | 251 to 1000 nM | 251 to 1000 nM | – | –
NC(CCCCB(O)O)(CCN1CCC(O)(Cc2ccccc2)CC1)C(=O)O (stereo not drawn) [compound 34, 2-amino-2-(2-(4-benzyl-4-hydroxypiperidin-1-yl)ethyl)-6-boronohexanoic acid dihydrochloride] | 251 to 1000 nM | 1000 to 2000 nM | – | –
NC(CCCCB(O)O)(CCN1CCc2ccccc2C1)C(=O)O (stereo not drawn) [compound 36, 2-amino-6-borono-2-(2-(3,4-dihydroisoquinolin-2(1H)-yl)ethyl)hexanoic acid dihydrochloride] | 251 to 1000 nM | 1000 to 2000 nM | – | –
CCN(CC)CCC(N)(CCCCB(O)O)C(=O)O (stereo not drawn) [compound 37, 2-amino-6-borono-2-(2-(diethylamino)ethyl)hexanoic acid dihydrochloride] | 251 to 1000 nM | 1000 to 2000 nM | – | –
NC(CCCCB(O)O)(CCN1CCC(=O)CC1)C(=O)O (stereo not drawn) [compound 38, 2-amino-6-borono-2-(2-(4-oxopiperidin-1-yl)ethyl)hexanoic acid dihydrochloride] | 2000 to 5000 nM | 2000 to 5000 nM | – | –
NC(CCCCB(O)O)(CCN1CCC(C(F)(F)F)CC1)C(=O)O (stereo not drawn) [compound 39, 2-amino-6-borono-2-(2-(4-(trifluoromethyl)piperidin-1-yl)ethyl)hexanoic acid dihydrochloride] | 1000 to 2000 nM | 2000 to 5000 nM | – | –
NC(CCCCB(O)O)(CCN1CCC[C@H]1CN1CCCC1)C(=O)O (stereo partly drawn) [compound 40, 2-amino-6-borono-2-(2-((S)-2-(pyrrolidin-1-ylmethyl)pyrrolidin-1-yl)ethyl)hexanoic acid trihydrochloride] | 1000 to 2000 nM | 2000 to 5000 nM | – | –
COC1CCN(CCC(N)(CCCCB(O)O)C(=O)O)CC1 (stereo not drawn) [compound 41, 2-amino-6-borono-2-(2-(4-methoxypiperidin-1-yl)ethyl)hexanoic acid dihydrochloride] | 1000 to 2000 nM | 2000 to 5000 nM | – | –
NC(CCCCB(O)O)(CCN1CCCC1c1cc2ccccc2o1)C(=O)O (stereo not drawn) [compound 42, 2-amino-2-(2-(2-(benzofuran-2-yl)pyrrolidin-1-yl)ethyl)-6-boronohexanoic acid dihydrochloride] | 2000 to 5000 nM | 2000 to 5000 nM | – | –
CN(CCO)CCC(N)(CCCCB(O)O)C(=O)O (stereo not drawn) [compound 43, 2-amino-6-borono-2-(2-((2-hydroxyethyl)(methyl)amino)ethyl)hexanoic acid dihydrochloride] | 1000 to 2000 nM | 2000 to 5000 nM | – | –
NC(CCCCB(O)O)(CCN1CCC(F)(F)C1)C(=O)O (stereo not drawn) [compound 44, 2-amino-6-borono-2-(2-(3,3-difluoropyrrolidin-1-yl)ethyl)hexanoic acid dihydrochloride] | > 5000 nM | > 5000 nM | – | –
CC(=O)C1(c2ccccc2)CCN(CCC(N)(CCCCB(O)O)C(=O)O)CC1 (stereo not drawn) [compound 45, 2-(2-(4-acetyl-4-phenylpiperidin-1-yl)ethyl)-2-amino-6-boronohexanoic acid dihydrochloride] | – | – | 1000 to 2000 nM | 2000 to 5000 nM

SMILES | IC50 [1, 3] | IC50 [2, 4] | IC50 [1] | IC50 [2]
NC(CCCCB(O)O)(CCN1CCC[C@@H]1C(F)(F)F)C(=O)O (stereo partly drawn) [compound 46, 2-amino-6-borono-2-(2-((R)-2-(trifluoromethyl)pyrrolidin-1-yl)ethyl)hexanoic acid dihydrochloride] | > 5000 nM | > 5000 nM | – | –
NC(CCCCB(O)O)(CCN1CCC(F)CC1)C(=O)O (stereo not drawn) [compound 47, 2-amino-6-borono-2-(2-(4-fluoropiperidin-1-yl)ethyl)hexanoic acid dihydrochloride] | 1000 to 2000 nM | 2000 to 5000 nM | – | –
CN(CCC(N)(CCCCB(O)O)C(=O)O)Cc1ccc(F)c(C(F)(F)F)c1 (stereo not drawn) [compound 48, 2-amino-6-borono-2-(2-((4-fluoro-3-(trifluoromethyl)benzyl)(methyl)amino)ethyl)hexanoic acid dihydrochloride] | 2000 to 5000 nM | > 5000 nM | – | –
CN1CCCN(CCC(N)(CCCCB(O)O)C(=O)O)CC1 (stereo not drawn) [compound 49, 2-amino-6-borono-2-(2-(4-methyl-1,4-diazepan-1-yl)ethyl)hexanoic acid dihydrochloride] | 2000 to 5000 nM | 2000 to 5000 nM | – | –
COc1ccccc1N1CCN(CCC(N)(CCCCB(O)O)C(=O)O)CC1 (stereo not drawn) [compound 50, 2-amino-6-borono-2-(2-(4-(2-methoxyphenyl)piperazin-1-yl)ethyl)hexanoic acid dihydrochloride] | > 5000 nM | > 5000 nM | – | –
NCCN(CCN)CCC(N)(CCCCB(O)O)C(=O)O (stereo not drawn) [compound 51, 2-amino-2-(2-(bis(2-aminoethyl)amino)ethyl)-6-boronohexanoic acid tetrahydrochloride] | 1000 to 2000 nM | 2000 to 5000 nM | – | –
NC(CCCCB(O)O)(CCN1CCCCC1C(=O)O)C(=O)O (stereo not drawn) [compound 52, 1-(3-amino-7-borono-3-carboxyheptyl)piperidine-2-carboxylic acid dihydrochloride] | 2000 to 5000 nM | 2000 to 5000 nM | – | –
NC(CCCCB(O)O)(CCN1CCC[C@@H](C(=O)O)C1)C(=O)O (stereo partly drawn) [compound 53, (3R)-1-(3-amino-7-borono-3-carboxyheptyl)piperidine-3-carboxylic acid] | 2000 to 5000 nM | 2000 to 5000 nM | – | –
CN(C)C(=O)[C@@H]1CCCN1CCC(N)(CCCCB(O)O)C(=O)O (stereo partly drawn) [compound 54, 2-amino-6-borono-2-(2-((S)-2-(dimethylcarbamoyl)pyrrolidin-1-yl)ethyl)hexanoic acid dihydrochloride] | > 5000 nM | > 5000 nM | – | –
CC(C)NCCC(N)(CCCCB(O)O)C(=O)O (stereo not drawn) [compound 55, 2-amino-6-borono-2-(2-(isopropylamino)ethyl)hexanoic acid dihydrochloride] | 0.1 to 250 nM | 251 to 1000 nM | – | –
NC(CCCCB(O)O)(CCN1CCC[C@H](C(=O)O)C1)C(=O)O (stereo partly drawn) [compound 56, (3S)-1-(3-amino-7-borono-3-carboxyheptyl)piperidine-3-carboxylic acid dihydrochloride] | 1000 to 2000 nM | 2000 to 5000 nM | – | –
CC1(C(=O)O)CCN(CCC(N)(CCCCB(O)O)C(=O)O)CC1 (stereo not drawn) [compound 57, 1-(3-amino-7-borono-3-carboxyheptyl)-4-methylpiperidine-4-carboxylic acid] | 1000 to 2000 nM | 1000 to 2000 nM | – | –
NC(CCCCB(O)O)(CCNC1Cc2ccccc2C1)C(=O)O (stereo not drawn) [compound 58, 2-amino-6-borono-2-(2-(2,3-dihydro-1H-inden-2-ylamino)ethyl)hexanoic acid dihydrochloride] | 0.1 to 250 nM | 0.1 to 250 nM | – | –
NC(CCCCB(O)O)(CCN1CC(O)C1)C(=O)O (stereo not drawn) [compound 59, 2-amino-6-borono-2-(2-(3-hydroxyazetidin-1-yl)ethyl)hexanoic acid dihydrochloride] | 1000 to 2000 nM | 2000 to 5000 nM | – | –
CCCCC1(NCCC(N)(CCCCB(O)O)C(=O)O)CC1 (stereo not drawn) [compound 60, 2-amino-6-borono-2-(2-(1-butylcyclopropylamino)ethyl)hexanoic acid dihydrochloride] | 0.1 to 250 nM | 251 to 1000 nM | – | –
COc1ccc(CC2(NCCC(N)(CCCCB(O)O)C(=O)O)CC2)cc1 (stereo not drawn) [compound 61, 2-amino-6-borono-2-(2-(1-(4-methoxybenzyl)cyclopropylamino)ethyl)hexanoic acid] | 251 to 1000 nM | 1000 to 2000 nM | – | –
